Several values for one entry are separate records, joined by “and”; a condition that tells them apart may be missing. Identical values can stand only once.
System: BDF1 mice, Adenocarcinoma 755 s.c., tumor weight T/C
Test: NCI In Vivo Anticancer Drug Screen. Data for tumor model Adenocarcinoma 755 (subcutaneous) in B6D2F1 (BDF1) mice
Conditions: endpoint: mean tumor weight, higher = larger tumour
How it was run: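 In vivo antitumor screen on a transplantable tumor line. Result equals the measure in compound-treated animals divided by the same measure in vehicle controls.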

[1] = dose: 31.0 mg/kg/injection, schedule: Q01DX011 (ip), vehicle: methylcellulose (MC)
[2] = dose: 62.0 mg/kg/injection, schedule: Q01DX011 (ip), vehicle: methylcellulose (MC)
[3] = dose: 125.0 mg/kg/injection, schedule: Q01DX011 (ip), vehicle: methylcellulose (MC)
[4] = dose: 250.0 mg/kg/injection, schedule: Q01DX011 (ip), vehicle: methylcellulose (MC)
[5] = dose: 50.0 mg/kg/injection, schedule: Q01DX011 (ip), vehicle: methylcellulose (MC)
[6] = dose: 200.0 mg/kg/injection, schedule: Q01DX011 (sc), vehicle: steriod suspending solution
[7] = dose: 400.0 mg/kg/injection, schedule: Q01DX011 (sc), vehicle: steriod suspending solution

In the case of `CO[C@H](C(=O)[C@@H](O)[C@@H](C)O)[C@@H]1Cc2cc3cc(OC4CC(OC5CC(O)C(O)C(C)O5)C(O)C(C)O4)c(C)c(O)c3c(O)c2C(=O)[C@H]1OC1CC(OC2CC(OC3CC(C)(O)C(O)C(C)O3)C(O)C(C)O2)C(O)C(C)O1` (some centres not stated), the T/C (dose: 0.25 mg/kg/injection, schedule: Q01DX011 (ip), vehicle: saline) is reported as 59 % of control, the T/C (dose: 0.25 mg/kg/injection, schedule: Q01DX011 (ip), vehicle: water) is reported as 72 % of control and the T/C (dose: 0.5 mg/kg/injection, schedule: Q01DX011 (ip), vehicle: saline) is reported as 57 % of control. For the same compound, the T/C (dose: 0.75 mg/kg/injection, schedule: Q01DX011 (ip), vehicle: water) was 16 % of control and the T/C (dose: 1.0 mg/kg/injection, schedule: Q01DX011 (ip), vehicle: saline) was 11 % of control.

With `Nc1nc(-c2cccnc2)nc(N)c1N=O` the T/C [1] was 120 % of control, the T/C [2] was 166 % of control and the T/C [3] was 119 % of control. For the same compound, the T/C [4] was 81 % of control.

`O=C(Nc1ncnc2c1ncn2C1CC(OC(=O)c2ccc([N+](=O)[O-])cc2)C(COC(=O)c2ccc([N+](=O)[O-])cc2)O1)c1ccccc1` (configuration not stated) was tested, and the T/C (dose: 16.7 mg/kg/injection, schedule: Q01DX011 (ip), vehicle: methylcellulose (MC)) was 104 % of control, the T/C [5] was 102 % of control and the T/C (dose: 150.0 mg/kg/injection, schedule: Q01DX011 (ip), vehicle: methylcellulose (MC)) was 62 % of control.

For `Cc1nc2nncn2c(=O)[nH]1`, the T/C (dose: 25.0 mg/kg/injection, schedule: Q01DX011 (ip), vehicle: saline) was 67 % of control, the T/C (dose: 75.0 mg/kg/injection, schedule: Q01DX011 (ip), vehicle: saline) was 101 % of control and the T/C (dose: 225.0 mg/kg/injection, schedule: Q01DX011 (ip), vehicle: saline) was 84 % of control.

`N=[N+]=CC(=O)OCC(N)C(=O)O` (configuration not stated) was tested, and the T/C (dose: 0.9 mg/kg/injection, schedule: Q01DX011 (ip), vehicle: carboxymethylcellulose (CMC)) was 124 % of control, the T/C (dose: 1.8 mg/kg/injection, schedule: Q01DX011 (ip), vehicle: carboxymethylcellulose (CMC)) was 111 % of control and the T/C (dose: 2.31 mg/kg/injection, schedule: Q01DX011 (ip), vehicle: carboxymethylcellulose (CMC)) was 72 % of control. For the same compound, the T/C (dose: 3.6 mg/kg/injection, schedule: Q01DX011 (ip), vehicle: carboxymethylcellulose (CMC)) was 90 % of control and 78 % of control, the T/C (dose: 4.63 mg/kg/injection, schedule: Q01DX011 (ip), vehicle: carboxymethylcellulose (CMC)) was 61 % of control and the T/C (dose: 4.8 mg/kg/injection, schedule: Q01DX011 (ip), vehicle: carboxymethylcellulose (CMC)) was 62 % of control and 74 % of control. For the same compound, the T/C (dose: 7.2 mg/kg/injection, schedule: Q01DX011 (ip), vehicle: carboxymethylcellulose (CMC)) was 28 % of control and 40 % of control and 51 % of control, the T/C (dose: 7.4 mg/kg/injection, schedule: Q01DX011 (ip), vehicle: carboxymethylcellulose (CMC)) was 50 % of control and the T/C (dose: 9.25 mg/kg/injection, schedule: Q01DX011 (ip), vehicle: carboxymethylcellulose (CMC)) was 50 % of control and 66 % of control. The T/C (dose: 12.33 mg/kg/injection, schedule: Q01DX011 (ip), vehicle: carboxymethylcellulose (CMC)) was 23 % of control and the T/C (dose: 18.5 mg/kg/injection, schedule: Q01DX011 (ip), vehicle: carboxymethylcellulose (CMC)) was 10 % of control.

With `C[C@]12CCC(=O)C=C1CC[C@@H]1[C@@H]2[C@@H](O)C[C@@]2(C)[C@H]1CC[C@]2(O)C(=O)CF` the T/C (dose: 50.0 mg/kg/injection, schedule: Q01DX011 (sc), vehicle: steriod suspending solution) was 21 % of control, the T/C (dose: 100.0 mg/kg/injection, schedule: Q01DX011 (sc), vehicle: steriod suspending solution) was 16 % of control and the T/C [6] was 6 % of control and 10 % of control. For the same compound, the T/C [7] was 7 % of control and 9 % of control and the T/C (dose: 600.0 mg/kg/injection, schedule: Q01DX011 (sc), vehicle: steriod suspending solution) was 9 % of control.

`O=C(N[C@H](CO)[C@H](O)c1ccc([N+](=O)[O-])cc1)C(Cl)Cl` was tested, and the T/C (dose: 71.73 mg/kg/injection, schedule: Q01DX011 (ip), vehicle: carboxymethylcellulose (CMC)) was 88 % of control, the T/C (dose: 73.63 mg/kg/injection, schedule: Q01DX011 (ip), vehicle: carboxymethylcellulose (CMC)) was 103 % of control and 106 % of control and the T/C (dose: 95.85 mg/kg/injection, schedule: Q01DX011 (ip), vehicle: carboxymethylcellulose (CMC)) was 95 % of control. For the same compound, the T/C (dose: 143.47 mg/kg/injection, schedule: Q01DX011 (ip), vehicle: carboxymethylcellulose (CMC)) was 104 % of control, the T/C (dose: 147.25 mg/kg/injection, schedule: Q01DX011 (ip), vehicle: carboxymethylcellulose (CMC)) was 71 % of control and the T/C (dose: 187.5 mg/kg/injection, schedule: Q01DX011 (ip), vehicle: methylcellulose (MC)) was 70 % of control. The T/C (dose: 191.7 mg/kg/injection, schedule: Q01DX011 (ip), vehicle: carboxymethylcellulose (CMC)) was 156 % of control, the T/C (dose: 286.95 mg/kg/injection, schedule: Q01DX011 (ip), vehicle: carboxymethylcellulose (CMC)) was 115 % of control and the T/C (dose: 294.5 mg/kg/injection, schedule: Q01DX011 (ip), vehicle: carboxymethylcellulose (CMC)) was 65 % of control. The T/C (dose: 300.0 mg/kg/injection, schedule: Q01DX011 (ip), vehicle: carboxymethylcellulose (CMC)) was 104 % of control, the T/C (dose: 375.0 mg/kg/injection, schedule: Q01DX011 (ip), vehicle: methylcellulose (MC)) was 62 % of control and the T/C (dose: 500.0 mg/kg/injection, schedule: Q01DX011 (ip), vehicle: carboxymethylcellulose (CMC)) was 69 % of control. For the same compound, the T/C (dose: 750.0 mg/kg/injection, schedule: Q01DX011 (ip), vehicle: methylcellulose (MC)) was 99 % of control.

In the case of `C=CCC1(CC)C(=O)NC(=O)NC1=O`, the T/C (dose: 10.0 mg/kg/injection, schedule: Q01DX011 (ip), vehicle: carboxymethylcellulose (CMC)) is reported as 83 % of control, the T/C (dose: 22.0 mg/kg/injection, schedule: Q01DX011 (ip), vehicle: methylcellulose (MC)) is reported as 53 % of control and the T/C (dose: 25.0 mg/kg/injection, schedule: Q01DX011 (ip), vehicle: methylcellulose (MC)) is reported as 112 % of control. The T/C (dose: 42.0 mg/kg/injection, schedule: Q01DX011 (ip), vehicle: methylcellulose (MC)) was 59 % of control, the T/C [5] was 94 % of control and 79 % of control and the T/C (dose: 85.0 mg/kg/injection, schedule: Q01DX011 (ip), vehicle: methylcellulose (MC)) was 23 % of control. The T/C (dose: 100.0 mg/kg/injection, schedule: Q01DX011 (ip), vehicle: methylcellulose (MC)) was 61 % of control and 66 % of control, the T/C (dose: 170.0 mg/kg/injection, schedule: Q01DX011 (ip), vehicle: carboxymethylcellulose (CMC)) was 49 % of control and the T/C (dose: 170.0 mg/kg/injection, schedule: Q01DX011 (ip), vehicle: methylcellulose (MC)) was 4 % of control. The T/C (dose: 200.0 mg/kg/injection, schedule: Q01DX011 (ip), vehicle: carboxymethylcellulose (CMC)) was 83 % of control and the T/C (dose: 200.0 mg/kg/injection, schedule: Q01DX011 (ip), vehicle: methylcellulose (MC)) was 27 % of control and 42 % of control.

In the case of `CC1CC2(C)C(=CC1=O)CCC1C3CCC(C)(O)C3(C)CC(O)C12F` (configuration not stated), the T/C [6] is reported as 106 % of control and the T/C [7] is reported as 92 % of control.

For `Nc1nc(Cl)cc(Nc2ccccc2Br)n1`, the T/C (dose: 15.0 mg/kg/injection, schedule: Q01DX011 (ip), vehicle: methylcellulose (MC)) was 66 % of control, the T/C [1] was 87 % of control and the T/C [2] was 88 % of control. For the same compound, the T/C [3] was 79 % of control and the T/C [4] was 121 % of control.
